# Measured values reported in patent publication US20240018124A1, “MODULATORS OF FPR1 AND METHODS OF USING THE SAME” (BIOFRONT LTD, priority 2021, published 2024).
# Experiments:
# FPR1 [1] = molecular target: T1, FPR1 (Homo sapiens (Human), UniProt P21462); test: Cyclic adenosine monophosphate (cAMP) assay, CHO-K1 cells stably overexpressing hFPR1; assay type: cell-based; settings: 2.5 μM Forskolin and 0.25 nM WKYMVm (FPR1 agonist)
# Protocol: Cyclic Adenosine Monophosphate (cAMP) Assay
# CHO-K1 cells stably overexpressing hFPR1 were plated into 384-well cell culture plates (2,000/well/5 μL) in 1× Stimulation Buffer (LANCE Ultra cAMP Kit, Perkin Elmer, TRF0263). 1 μL compound solution (prepared in ddH2O containing 0.2% DMSO) was added to each well. Plates were centrifuged briefly, and cells were incubated at 37° C. in 5% CO2 for 10 minutes. 4 μL solution containing 2.5 μM Forskolin and 0.25 nM WKYMVm (an FPR1 agonist, GLPBIO, GC15140) was then added to each well. 5 μL of Eu-cAMP solution (diluted to manufacturer's recommended working concentration in Detection Buffer, LANCE Ultra cAMP Kit) and 5 μL of ULight-anti-cAMP solution (diluted in Detection Buffer, LANCE Ultra cAMP Kit) were added to each well. Plates were centrifuged briefly, and cells were incubated at room temperature for 1 hour. Fluorescence emission at 665 nm and 620 nm from the samples was measured by a Perkin Elmer Envision instrument.
# (§1) The effects of the compounds of the present disclosure on regulating the FPR1-mediated cell signaling were measured by monitoring the cellular cAMP level change and anti-reactive oxygen species formation in human neutrophils in the presence of an FPR1 agonist, respectively, as illustrated by the examples in Table 1.
# FPR1 [2] = molecular target: T1, FPR1; test: Reactive oxygen species (ROS) assay in human neutrophils stimulated with fMLP; assay type: cell-based; settings: human neutrophils from whole blood; fMLP (500 nM); DCFH-DA fluorescence; read-out: Anti-ROS IC50
# Protocol: Reactive Oxygen Species (ROS) Assay
# Human whole blood was collected, and ACK lysis buffer (ThermoFisher, A1049201) was added at 3 times the volume of the blood sample to lyse the red blood cells. The sample was incubated on ice for 15 minutes, and gently mixed twice during the incubation. 10 mL DPBS was then added, and the sample was centrifuged for 8 minutes. After removing the supernatant, remaining cells were resuspended in RPMI1640 medium containing 3% FBS and centrifuged again for 10 minutes. After removing the supernatant, cells were again resuspended in RPMI1640 medium containing 3% FBS. Neutrophil cell count was determined using FACS analysis by APC-labeled CD11b antibody (Biolegend, 101211) and FITC-labeled CD66b antibody (Biolegend, 305104). Neutrophils were then plated into 96-well plates (300,000/well). Plates were centrifuged and supernatant was removed. Cells were resuspended in 80 μL of compound solution (prepared in RPMI1640 medium containing 3% FBS), then incubated at room temperature for 15 minutes. 20 μL solution containing DCFH-DA (at the manufacturer's recommended concentration, Yeasen Biotechnology, 50101ES01) and fMLP (500 nM) was then added. Cells were incubated at 37° C. in 5% CO2 for 20 minutes away from light. After incubation, cells were placed on ice for 5 minutes, washed twice with 200 μL ice-cold DPBS, then resuspended in ice-cold DPBS at 100 µL/well. Fluorescence from each sample was measured at 485 nm excitation and 535 nm emission.
# as §1
# T1 sequence (P21462 whole entry): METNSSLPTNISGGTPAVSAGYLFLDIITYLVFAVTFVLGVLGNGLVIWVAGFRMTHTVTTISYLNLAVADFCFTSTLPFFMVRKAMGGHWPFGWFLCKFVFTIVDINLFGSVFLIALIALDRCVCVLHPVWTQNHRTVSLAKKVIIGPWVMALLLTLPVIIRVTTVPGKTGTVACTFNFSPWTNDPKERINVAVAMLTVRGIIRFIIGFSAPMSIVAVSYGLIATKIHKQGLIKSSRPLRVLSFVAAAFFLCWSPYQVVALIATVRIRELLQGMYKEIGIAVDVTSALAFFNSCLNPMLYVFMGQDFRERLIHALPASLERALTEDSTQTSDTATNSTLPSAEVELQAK
Structure (SMILES),IC50 (FPR1 [1]) [µM],IC50 (FPR1 [2]) [µM]
"C[C@H](NC(=O)c1c(NS(=O)(=O)c2ccc(C#N)cc2)c(-c2ccc(F)cc2)nn1C)C(C)(C)C [Compound 1, (S)-4-((4-cyanophenyl)sulfonamido)-N-(3,3-dimethylbutan-2-yl)-3-(4-fluorophenyl)-1-methyl-1H-pyrazole-5-carboxamide]",0.1 to 1,0.1 to 1
"CC[C@H](C)NC(=O)c1c(NS(=O)(=O)c2ccccc2)c(-c2ccc(F)cc2)nn1C [Compound 3, (S)—N-(sec-butyl)-3-(4-fluorophenyl)-1-methyl-4-(phenylsulfonamido)-1H-pyrazole-5-carboxamide]",> 25,
"C[C@H](NC(=O)c1c(NS(=O)(=O)c2ccc(Cl)cc2)c(-c2ccncc2)nn1C)C(C)(C)C [Compound 5, (S)-4-((4-chlorophenyl)sulfonamido)-N-(3,3-dimethylbutan-2-yl)-1-methyl-3-(pyridin-4-yl)-1H-pyrazole-5-carboxamide]",> 25,
"C[C@H](NC(=O)c1noc(C2CCOCC2)c1NS(=O)(=O)c1ccc(Cl)cc1)C(C)(C)C [Compound 11, (S)-4-((4-chlorophenyl)sulfonamido)-N-(3,3-dimethylbutan-2-yl)-5-(tetrahydro-2H-pyran-4-yl)isoxazole-3-carboxamide]",> 25,
"COCc1cccc(-c2nn(C)c(C(=O)N[C@@H](C)C(C)(C)C)c2NS(=O)(=O)c2ccc(C)cc2)c1 [Compound 15, (S)—N-(3,3-dimethylbutan-2-yl)-3-(3-(methoxymethyl)phenyl)-1-methyl-4-((4-methylphenyl)sulfonamido)-1H-pyrazole-5-carboxamide]",> 25,0.1 to 1
"Cc1ccc(S(=O)(=O)Nc2c(C3=CCOCC3)nn(C)c2C(=O)N[C@@H](C)C(C)(C)C)cc1 [Compound 16, (S)-3-(3,6-dihydro-2H-pyran-4-yl)-N-(3,3-dimethylbutan-2-yl)-1-methyl-4-((4-methylphenyl)sulfonamido)-1H-pyrazole-5-carboxamide]",1 to 25,0.1 to 1
"Cc1ccc(S(=O)(=O)Nc2c(C3=CCC(C)(C)CC3)nn(C)c2C(=O)N[C@@H](C)C(C)(C)C)cc1 [Compound 18, (S)—N-(3,3-dimethylbutan-2-yl)-3-(4,4-dimethylcyclohex-1-en-1-yl)-1-methyl-4-((4-methylphenyl)sulfonamido)-1H-pyrazole-5-carboxamide]",> 25,
"Cc1ccc(S(=O)(=O)Nc2c(C3=CCC(F)(F)CC3)nn(C)c2C(=O)N[C@@H](C)C(C)(C)C)cc1 [Compound 29, (S)-3-(4,4-difluorocyclohex-1-en-1-yl)-N-(3,3-dimethylbutan-2-yl)-1-methyl-4-((4-methylphenyl)sulfonamido)-1H-pyrazole-5-carboxamide]",> 25,
"Cc1ccc(S(=O)(=O)Nc2c(C3=CCOCC3)nn(C)c2C(=O)N[C@@H](C)C(C)(C)C)cc1 [Compound 30, (S)-3-(3,6-dihydro-2H-pyran-4-yl)-N-(3,3-dimethylbutan-2-yl)-1-methyl-4-((4-methylphenyl)sulfonamido)-1H-pyrazole-5-carboxamide]",1 to 25,
"Cc1ccc(S(=O)(=O)Nc2c(C3=CCC(C#N)CC3)nn(C)c2C(=O)N[C@@H](C)C(C)(C)C)cc1 (stereo partly drawn) [Compound 32, 3-(4-cyanocyclohex-1-en-1-yl)-N—((S)-3,3-dimethylbutan-2-yl)-1-methyl-4-((4-methylphenyl)sulfonamido)-1H-pyrazole-5-carboxamide]",1 to 25,
"Cc1ccc(S(=O)(=O)Nc2c(-c3cccc(OC(F)(F)F)c3)nn(C)c2C(=O)N[C@@H](C)C(C)(C)C)cc1 [Compound 34, (S)—N-(3,3-dimethylbutan-2-yl)-1-methyl-4-((4-methylphenyl)sulfonamido)-3-(3-(trifluoromethoxy)phenyl)-1H-pyrazole-5-carboxamide]",> 25,
"Cc1ccc(S(=O)(=O)Nc2c(-c3cccc(OCC(C)C)c3)nn(C)c2C(=O)N[C@@H](C)C(C)(C)C)cc1 [Compound 35, (S)—N-(3,3-dimethylbutan-2-yl)-3-(3-isobutoxyphenyl)-1-methyl-4-((4-methylphenyl)sulfonamido)-1H-pyrazole-5-carboxamide]",> 25,
"C[C@H](NC(=O)c1c(NS(=O)(=O)c2ccc(Cl)cc2)c(C2=CCC(F)(F)CC2)nn1C)C(C)(C)C [Compound 36, (S)-4-((4-chlorophenyl)sulfonamido)-3-(4,4-difluorocyclohex-1-en-1-yl)-N-(3,3-dimethylbutan-2-yl)-1-methyl-1H-pyrazole-5-carboxamide]",> 25,
"COCc1cncc(-c2nn(C)c(C(=O)N[C@@H](C)C(C)(C)C)c2NS(=O)(=O)c2ccc(Cl)cc2)c1 [Compound 40, (S)-4-((4-chlorophenyl)sulfonamido)-N-(3,3-dimethylbutan-2-yl)-3-(5-(methoxymethyl)pyridin-3-yl)-1-methyl-1H-pyrazole-5-carboxamide]",1 to 25,

# Second part, the compound after the results:
IC50 (FPR1 [1]) [µM],IC50 (FPR1 [2]) [µM],Structure (SMILES)
0.1 to 1,< 0.1,"CO[C@H]1CC[C@@H](c2nn(C)c(C(=O)N[C@@H](C)C(C)(C)C)c2NS(=O)(=O)c2ccc(C)cc2)CC1 [Compound 6, N—((S)-3,3-dimethylbutan-2-yl)-3-((1s,4R)-4-methoxycyclohexyl)-1-methyl-4-((4-methylphenyl)sulfonamido)-1H-pyrazole-5-carboxamide]"
0.1 to 1,0.1 to 1,"C[C@H](NC(=O)c1c(NS(=O)(=O)c2ccc(Cl)cc2)c(C2CCOCC2)nn1C)C(C)(C)C [Compound 9, (S)-4-((4-chlorophenyl)sulfonamido)-N-(3,3-dimethylbutan-2-yl)-1-methyl-3-(tetrahydro-2H-pyran-4-yl)-1H-pyrazole-5-carboxamide]"
> 25,,"C[C@H](NC(=O)c1c(NS(=O)(=O)c2ccc(Cl)cc2)c(C2CCOCC2)nn1C1CC1)C(C)(C)C [Compound 10, (S)-4-((4-chlorophenyl)sulfonamido)-1-cyclopropyl-N-(3,3-dimethylbutan-2-yl)-3-(tetrahydro-2H-pyran-4-yl)-1H-pyrazole-5-carboxamide]"
0.1 to 1,< 0.1,"CO[C@H]1CC[C@@H](c2nn(C)c(C(=O)N[C@@H](C)C(C)(C)C)c2NS(=O)(=O)c2ccc(Cl)cc2)CC1 [Compound 19, 4-((4-chlorophenyl)sulfonamido)-N—((S)-3,3-dimethylbutan-2-yl)-3-((1S,4R)-4-methoxycyclohexyl)-1-methyl-1H-pyrazole-5-carboxamide]"
0.1 to 1,< 0.1,"CO[C@H]1CC[C@@H](c2nn(C)c(C(=O)N[C@@H](C)C(C)(C)C)c2NS(=O)(=O)c2ccc(C3CC3)cc2)CC1 [Compound 20, 4-((4-cyclopropylphenyl)sulfonamido)-N—((S)-3,3-dimethylbutan-2-yl)-3-((1S,4R)-4-methoxycyclohexyl)-1-methyl-1H-pyrazole-5-carboxamide]"
< 0.1,< 0.1,"CO[C@H]1CC[C@@H](c2nn(C)c(C(=O)N[C@@H](C)C(C)(C)C)c2NS(=O)(=O)c2ccc(C#N)cc2)CC1 [Compound 21, 4-((4-cyanophenyl)sulfonamido)-N—((S)-3,3-dimethylbutan-2-yl)-3-((1S,4R)-4-methoxycyclohexyl)-1-methyl-1H-pyrazole-5-carboxamide]"
0.1 to 1,< 0.1,"COC1CC=C(c2nn(C)c(C(=O)N[C@@H](C)C(C)(C)C)c2NS(=O)(=O)c2ccc(Cl)cc2)CC1 (stereo partly drawn) [Compound 22, 4-((4-chlorophenyl)sulfonamido)-N—((S)-3,3-dimethylbutan-2-yl)-3-(4-methoxycyclohex-1-en-1-yl)-1-methyl-1H-pyrazole-5-carboxamide]"
1 to 25,1 to 25,"C[C@H](NC(=O)c1c(NS(=O)(=O)c2ccc(Cl)cc2)c(C2CCC3(CC2)OCCO3)nn1C)C(C)(C)C [Compound 23, (S)-4-((4-chlorophenyl)sulfonamido)-N-(3,3-dimethylbutan-2-yl)-1-methyl-3-(1,4-dioxaspiro[4.5]decan-8-yl)-1H-pyrazole-5-carboxamide]"
> 25,,"Cc1ccc(S(=O)(=O)Nc2c(C3(O)CCOCC3)nn(C)c2C(=O)N[C@@H](C)C(C)(C)C)cc1 [Compound 31, (S)—N-(3,3-dimethylbutan-2-yl)-3-(4-hydroxytetrahydro-2H-pyran-4-yl)-1-methyl-4-((4-methylphenyl)sulfonamido)-1H-pyrazole-5-carboxamide]"
